# From US20260027068A1, “METHODS OF ADM[…]-KETAMINE” (Perception Neuroscience, Inc., priority 2022, published 2026)
# System: subjects with TRD
# Experiment: Adverse events (TEAEs, SAEs) in the TRD study
# Format: in vivo, human
# Details: for Number of subjects with TEAE, Mild / Number of subjects with TEAE, Moderate / Number of subjects with TEAE, Severe / Percent of subjects with TEAE, Mild / Percent of subjects with TEAE, Moderate / Percent of subjects with TEAE, Severe: maximum severity
# Description: The definitions of an AE and SAE can be found in Section F. AEs were reported by the subject (or, when appropriate, by a caregiver, surrogate, or the subject's legally authorized representative). The Investigator and any designees were responsible for detecting, documenting, and recording events that meet the definition of an AE or SAE and remained responsible for following up AEs that were serious, considered related to the study treatment or study procedures, or that caused the subject to discontinue from the study.
# All AEs were collected from the signing of the ICF until the second follow-up visit (Day 15) at the time points specified in the Schedule of Activities (Section C). Medical occurrences that began before the start of study treatment but after obtaining informed consent were recorded on the Medical History/Current Medical Conditions section of the CRF, not the AE section. All SAEs were recorded and reported to the Sponsor or designee within 24 hours as indicated in Section F. The Investigator submitted any updated SAE data to the Sponsor or designee within 24 hours of it being available. Investigators were not obligated to actively seek AE or SAE information after the conclusion of study participation. However, if the Investigator learns of any SAE, including a death, at any time after a subject has been discharged from the study, and he/she considers the event to be reasonably related to the study treatment or study participation, the Investigator must promptly notify the Sponsor or designee. The method of recording, evaluating, and assessing the causality of AEs and SAEs and the procedures for completing and transmitting SAE reports are provided in Section F.
# An AE is any untoward medical occurrence in a patient or subject, temporally associated with the use of study treatment, whether or not considered related to the study treatment. An AE can therefore be any unfavorable and unintended sign (including an abnormal laboratory finding), symptom, or disease (new or exacerbated) temporally associated with the use of study treatment.
# If an event is not an AE per the definition above, then it cannot be an SAE even if serious conditions are met (e.g., hospitalization for signs/symptoms of the disease under study). A Serious Adverse Event (SAE) is defined as any untoward medical occurrence that, at any dose: a) results in death; b) is life-threatening; c) requires inpatient hospitalization or prolongation of existing hospitalization; d) results in persistent disability/incapacity; or e) is a congenital anomaly/birth defect. The term “life-threatening” in the definition of “serious” refers to an event in which the subject was at risk of death at the time of the event. […] In general, hospitalization signifies that the subject has been detained (usually involving at least an overnight stay) at the hospital or emergency ward for observation and/or treatment that would not have been appropriate in the physician's office or outpatient setting. Complications that occur during hospitalization are AEs. If a complication prolongs hospitalization or fulfills any other serious criteria, the event is serious. When in doubt as to whether “hospitalization” occurred or was necessary, the AE should be considered serious. […] The term disability means a substantial disruption of a person's ability to conduct normal life functions.
# (MedDRA; Version 23.0 or higher). Treatment-emergent adverse events (TEAEs) are AEs with onset or worsening after the start of study treatment. The AE summaries will be primarily based on TEAEs. The number and percentage of subjects with TEAEs will be summarized by treatment group, system organ class, and preferred term for all TEAEs, treatment-related TEAEs, SAEs, serious TEAEs, severe TEAEs, TEAEs of special interest, and all TEAEs leading to study drug discontinuation. All TEAEs will be further summarized by maximum severity and causality. The TEAEs of special interest will be identified in the SAP. […]
structure (smiles),measurement,setting,value
"CN[C@@]1(c2ccccc2Cl)CCCCC1=O.Cl [R(−)-ketamine, (2R)-2-(2-chlorophenyl)-2-(methylamino)cyclohexan-1-one]",Number of subjects with Any adverse events (AE),30 mg (n = 33),11
same,Number of subjects with Serious TEAEs resulting in treatment discontinuation,30 mg (n = 33),0
same,Number of subjects with TEAE with outcome of death,30 mg (n = 33),0
same,Number of subjects with TEAEs of COVID-19,30 mg (n = 33),0
same,Number of subjects with TEAEs resulting in discontinuation from study,30 mg (n = 33),0
same,Number of subjects with TEAEs resulting in treatment discontinuation,30 mg (n = 33),0
same,"Number of subjects with Treatment-emergent SAE, Mild",30 mg (n = 33),0
same,"Number of subjects with Treatment-emergent SAE, Moderate",30 mg (n = 33),0
same,"Number of subjects with Treatment-emergent SAE, Severe",30 mg (n = 33),0
same,Number of subjects with Treatment-emergent adverse events (TEAE),30 mg (n = 33),11
same,Number of subjects with Treatment-emergent serious adverse events (SAE),30 mg (n = 33),0
same,Number of subjects with Treatment-related TEAEs,30 mg (n = 33),10
same,Number of subjects with Treatment-related and severe TEAEs,30 mg (n = 33),0
same,Number of subjects with Treatment-related treatment-emergent SAEs,30 mg (n = 33),0
same,Percent of subjects with Any adverse events (AE),30 mg (n = 33),(33) %
same,Percent of subjects with Serious TEAEs resulting in treatment discontinuation,30 mg (n = 33),(0) %
same,Percent of subjects with TEAE with outcome of death,30 mg (n = 33),(0) %
same,Percent of subjects with TEAEs of COVID-19,30 mg (n = 33),(0) %
same,Percent of subjects with TEAEs resulting in discontinuation from study,30 mg (n = 33),(0) %
same,Percent of subjects with TEAEs resulting in treatment discontinuation,30 mg (n = 33),(0) %
same,"Percent of subjects with Treatment-emergent SAE, Mild",30 mg (n = 33),(0) %
same,"Percent of subjects with Treatment-emergent SAE, Moderate",30 mg (n = 33),(0) %
same,"Percent of subjects with Treatment-emergent SAE, Severe",30 mg (n = 33),(0) %
same,Percent of subjects with Treatment-emergent adverse events (TEAE),30 mg (n = 33),(33) %
same,Percent of subjects with Treatment-emergent serious adverse events (SAE),30 mg (n = 33),(0) %
same,Percent of subjects with Treatment-related TEAEs,30 mg (n = 33),(30) %
same,Percent of subjects with Treatment-related and severe TEAEs,30 mg (n = 33),(0) %
same,Percent of subjects with Treatment-related treatment-emergent SAEs,30 mg (n = 33),(0) %
same,"Number of subjects with TEAE, Mild",30 mg (n = 33),7
same,"Number of subjects with TEAE, Moderate",30 mg (n = 33),4
same,"Number of subjects with TEAE, Severe",30 mg (n = 33),0
same,"Percent of subjects with TEAE, Mild",30 mg (n = 33),(21) %
same,"Percent of subjects with TEAE, Moderate",30 mg (n = 33),(12) %
same,"Percent of subjects with TEAE, Severe",30 mg (n = 33),(0) %
same,Serious adverse events (SAEs),30 mg or 60 mg single IV infusion,no serious adverse events
same,Number of subjects with Any adverse events (AE),60 mg (n = 35),19
same,Number of subjects with Serious TEAEs resulting in treatment discontinuation,60 mg (n = 35),0
same,Number of subjects with TEAE with outcome of death,60 mg (n = 35),0
same,Number of subjects with TEAEs of COVID-19,60 mg (n = 35),0
same,Number of subjects with TEAEs resulting in discontinuation from study,60 mg (n = 35),0
same,Number of subjects with TEAEs resulting in treatment discontinuation,60 mg (n = 35),0
same,"Number of subjects with Treatment-emergent SAE, Mild",60 mg (n = 35),0
same,"Number of subjects with Treatment-emergent SAE, Moderate",60 mg (n = 35),0
same,"Number of subjects with Treatment-emergent SAE, Severe",60 mg (n = 35),0
same,Number of subjects with Treatment-emergent adverse events (TEAE),60 mg (n = 35),18
same,Number of subjects with Treatment-emergent serious adverse events (SAE),60 mg (n = 35),0
same,Number of subjects with Treatment-related TEAEs,60 mg (n = 35),16
same,Number of subjects with Treatment-related and severe TEAEs,60 mg (n = 35),2
same,Number of subjects with Treatment-related treatment-emergent SAEs,60 mg (n = 35),0
same,Percent of subjects with Any adverse events (AE),60 mg (n = 35),(54) %
same,Percent of subjects with Serious TEAEs resulting in treatment discontinuation,60 mg (n = 35),(0) %
same,Percent of subjects with TEAE with outcome of death,60 mg (n = 35),(0) %
same,Percent of subjects with TEAEs of COVID-19,60 mg (n = 35),(0) %
same,Percent of subjects with TEAEs resulting in discontinuation from study,60 mg (n = 35),(0) %
same,Percent of subjects with TEAEs resulting in treatment discontinuation,60 mg (n = 35),(0) %
same,"Percent of subjects with Treatment-emergent SAE, Mild",60 mg (n = 35),(0) %
same,"Percent of subjects with Treatment-emergent SAE, Moderate",60 mg (n = 35),(0) %
same,"Percent of subjects with Treatment-emergent SAE, Severe",60 mg (n = 35),(0) %
same,Percent of subjects with Treatment-emergent adverse events (TEAE),60 mg (n = 35),(51) %
same,Percent of subjects with Treatment-emergent serious adverse events (SAE),60 mg (n = 35),(0) %
same,Percent of subjects with Treatment-related TEAEs,60 mg (n = 35),(46) %
same,Percent of subjects with Treatment-related and severe TEAEs,60 mg (n = 35),(6) %
same,Percent of subjects with Treatment-related treatment-emergent SAEs,60 mg (n = 35),(0) %
same,"Number of subjects with TEAE, Mild",60 mg (n = 35),9
same,"Number of subjects with TEAE, Moderate",60 mg (n = 35),7
same,"Number of subjects with TEAE, Severe",60 mg (n = 35),2
same,"Percent of subjects with TEAE, Mild",60 mg (n = 35),(26) %
same,"Percent of subjects with TEAE, Moderate",60 mg (n = 35),(20) %
same,"Percent of subjects with TEAE, Severe",60 mg (n = 35),(6) %
